EC50 data for 6 compounds are collected here from US10414811B2, “Protease-resistant lipidated GLP-1 analogs” (MEDIMMUNE LIMITED, priority 2015, dated 2019).

What all share (type): cell-based
Assay [1] concerns the target T1, human GLP-1 receptor (GLP-1R) (Homo sapiens, UniProt P43220).
T1 construct: expressed in transfected cells
The experiment in a line: cAMP assay, human GLP-1R cells. Put shortly:
(§1)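 Peptide-stimulated cAMP measured by two-step HTRF after a 30 min room-temperature incubation with receptor-expressing cells (hGLP-1R, hGIPR at 1×10^5 cells/ml; hGCGR at 2×10^5 cells/ml). Duplicate dilutions; EC50 from 4-parameter logistic fit of % Delta F.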
(cAMP levels reflect the balance of adenylyl cyclase and phosphodiesterase activity.)

In assay [2] the target is T2, human glucagon receptor (GCGR) (Homo sapiens, UniProt P47871).
T2 construct: expressed in transfected cells
The experiment in a line: cAMP assay, human GCGR cells. The note with it: cAMP assay. Put shortly:
as §1

Assay [3] has as its target T3, human glucose-dependent insulinotropic peptide receptor (GIPR) (Homo sapiens, UniProt P48546).
T3 construct: expressed in transfected cells
T3 sequence (P48546 22-466): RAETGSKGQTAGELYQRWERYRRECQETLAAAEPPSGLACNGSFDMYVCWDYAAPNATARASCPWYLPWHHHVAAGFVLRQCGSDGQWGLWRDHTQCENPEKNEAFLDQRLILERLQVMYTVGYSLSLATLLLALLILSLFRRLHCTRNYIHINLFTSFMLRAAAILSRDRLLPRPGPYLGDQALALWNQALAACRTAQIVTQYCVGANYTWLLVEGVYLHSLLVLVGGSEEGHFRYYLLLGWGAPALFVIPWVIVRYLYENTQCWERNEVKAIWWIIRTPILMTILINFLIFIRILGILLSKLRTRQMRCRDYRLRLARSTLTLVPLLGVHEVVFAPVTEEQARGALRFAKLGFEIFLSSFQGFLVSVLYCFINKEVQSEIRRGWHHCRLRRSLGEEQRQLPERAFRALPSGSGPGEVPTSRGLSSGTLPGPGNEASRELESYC
Description: cAMP assay, human GIPR cells. As to conditions: cAMP assay. Put shortly:
as §1

[4] abbreviates: cAMP assay, first determination (n1), read-out: Primary assay EC50 GLP-1R n1.
[5] abbreviates: cAMP assay, second determination (n2), read-out: Primary assay EC50 GLP-1R n2.
The mark [6] stands for this setting: mean of n1 and n2, read-out: Mean pM GLP-1R.
Setting [7] is: first determination (n1), read-out: Primary assay EC50 Gluc-R (n1).
Where [8] appears, read: second determination (n2), read-out: Primary assay EC50 Gluc-R (n2).
Setting [9] is: first determination (n1), read-out: Primary assay EC50 GIP-R (n1).
The mark [10] stands for this setting: second determination (n2), read-out: Primary assay EC50 GIP-R (n2).

Where two headings read alike, the source gives them in different places. Numbered stars: 1 amine (or outer) side, 2 acyl side, 3 side chain; on linkers, the order of the positions; unused ones are H or OH. Square brackets hold non-standard residues; d marks the D form. Side chains are listed from the residue outwards. Peptide text beside a SMILES is read from it. * marks the point of attachment. γGlu = O=C(O)[C@H](CCC(=O)[*:2])N[*:1]; Palmitoyl = CCCCCCCCCCCCCCCC(=O)*; αMeF = C[C@](N)(Cc1ccccc1)C(=O)O; αMeK = C[C@](N)(CCCCN)C(=O)O; αMeS = C[C@](N)(CO)C(=O)O; Aib = CC(C)(N)C(=O)O

T1 sequence (P43220 24-463): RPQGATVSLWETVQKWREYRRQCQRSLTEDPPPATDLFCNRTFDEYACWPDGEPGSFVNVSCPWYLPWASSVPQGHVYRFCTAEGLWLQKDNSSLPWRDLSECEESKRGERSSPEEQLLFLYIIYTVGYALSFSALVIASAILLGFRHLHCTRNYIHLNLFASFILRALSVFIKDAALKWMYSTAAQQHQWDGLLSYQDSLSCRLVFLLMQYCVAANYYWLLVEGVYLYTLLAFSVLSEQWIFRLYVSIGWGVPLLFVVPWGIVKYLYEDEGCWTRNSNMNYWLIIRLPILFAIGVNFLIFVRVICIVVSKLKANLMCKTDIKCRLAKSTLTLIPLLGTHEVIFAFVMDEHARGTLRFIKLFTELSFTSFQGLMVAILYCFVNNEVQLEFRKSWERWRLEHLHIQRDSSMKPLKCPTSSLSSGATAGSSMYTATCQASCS
T2 sequence (P47871 26-477): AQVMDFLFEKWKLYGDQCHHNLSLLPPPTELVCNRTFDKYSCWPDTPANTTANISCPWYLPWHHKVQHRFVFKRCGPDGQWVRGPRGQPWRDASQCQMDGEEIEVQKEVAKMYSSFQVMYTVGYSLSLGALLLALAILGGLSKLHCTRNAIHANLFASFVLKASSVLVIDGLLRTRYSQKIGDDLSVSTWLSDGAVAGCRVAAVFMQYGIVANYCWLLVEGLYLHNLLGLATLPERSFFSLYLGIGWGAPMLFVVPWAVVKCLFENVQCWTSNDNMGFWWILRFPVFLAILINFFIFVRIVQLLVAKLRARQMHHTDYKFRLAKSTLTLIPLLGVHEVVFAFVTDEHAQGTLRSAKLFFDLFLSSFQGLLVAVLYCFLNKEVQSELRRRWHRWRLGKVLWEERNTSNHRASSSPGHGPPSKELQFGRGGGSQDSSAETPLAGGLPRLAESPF

In the case of `CC[C@H](C)[C@H](NC(=O)[C@H](Cc1ccccc1)NC(=O)[C@H](CCC(=O)O)NC(=O)[C@H](CCCCN)NC(=O)[C@H](C)NC(=O)[C@H](C)NC(=O)[C@H](CCC(N)=O)NC(=O)CNC(=O)[C@H](CCC(=O)O)NC(=O)[C@H](CC(C)C)NC(=O)[C@H](Cc1ccc(O)cc1)NC(=O)[C@H](CO)NC(=O)C(C)(C)NC(=O)[C@@H](NC(=O)[C@H](CC(=O)O)NC(=O)C(C)(C)NC(=O)[C@@H](NC(=O)[C@H](Cc1ccccc1)NC(=O)[C@@H](NC(=O)CNC(=O)[C@H](CCC(=O)O)NC(=O)C(C)(C)NC(=O)[C@@H](N)Cc1c[nH]cn1)[C@@H](C)O)[C@@H](C)O)C(C)C)C(=O)N[C@@H](C)C(=O)N[C@@H](Cc1c[nH]c2ccccc12)C(=O)N[C@@H](CC(C)C)C(=O)N[C@H](C(=O)N[C@@H](CCCCN)C(=O)NCC(=O)N[C@@H](CCCNC(=N)N)C(N)=O)C(C)C` [compound 24] (H-H[Aib]EGTFT[Aib]DV[Aib]SYLEGQAAKEFIAWLVKGR-NH2), the EC50 was 3300 pM in assay [1] (setting [4]); 7900 pM in assay [1] (setting [5]); 5600 pM in assay [1] (setting [6]); not below 740 nM in assay [2] (setting [7]); not below 740 nM in assay [2] (setting [8]); not below 740 nM in assay [3] (setting [9]). For the same compound, the EC50 in assay [3] (setting [10]) is not below 740 nM.

As for `CCCCCCCCCCCCCCCCCC(=O)NCCCCCC(=O)NCCCCCC(=O)NCCCC[C@H](NC(=O)[C@H](C)NC(=O)[C@H](C)NC(=O)[C@H](CCC(=O)O)NC(=O)CNC(=O)[C@H](CCC(=O)O)NC(=O)[C@H](CC(C)C)NC(=O)[C@](C)(Cc1ccccc1)NC(=O)[C@H](CO)NC(=O)[C@](C)(CO)NC(=O)[C@@H](NC(=O)[C@H](CC(=O)O)NC(=O)[C@H](CO)NC(=O)[C@@H](NC(=O)[C@](C)(Cc1ccccc1)NC(=O)[C@H](CO)NC(=O)CNC(=O)[C@H](CCC(=O)O)NC(=O)C(C)(C)NC(=O)[C@@H](N)Cc1c[nH]cn1)[C@@H](C)O)C(C)C)C(=O)N[C@@H](CCC(=O)O)C(=O)N[C@@](C)(Cc1ccccc1)C(=O)N[C@H](C(=O)N[C@@H](C)C(=O)N[C@@](C)(Cc1ccccc1)C(=O)N[C@H](C(=O)N[C@H](C(=O)N[C@@](C)(CCCCN)C(=O)NCC(=O)NCC(N)=O)C(C)C)C(C)C)[C@@H](C)CC` [compound 150], the EC50 is 28 pM in assay [1] (setting [4]); 22 pM in assay [1] (setting [5]); 25.4 pM in assay [1] (setting [6]); not below 27 nM in assay [2] (setting [7]); not below 27 nM in assay [2] (setting [8]); not below 27 nM in assay [3] (setting [9]). Moreover, the EC50 in assay [3] (setting [10]) was not below 27 nM.

On to `CC[C@H](C)[C@H](NC(=O)[C@](C)(Cc1ccccc1)NC(=O)[C@H](CCC(=O)O)NC(=O)[C@H](CCCCNC(=O)CC[C@H](NC(=O)CC[C@H](NC(=O)CCCCCCCCCCCOc1ccc(C(=O)O)cc1)C(=O)O)C(=O)O)NC(=O)[C@H](C)NC(=O)[C@H](C)NC(=O)[C@H](CCC(=O)O)NC(=O)CNC(=O)[C@H](CCC(=O)O)NC(=O)[C@H](CC(C)C)NC(=O)[C@](C)(Cc1ccccc1)NC(=O)[C@H](CO)NC(=O)[C@](C)(CO)NC(=O)[C@@H](NC(=O)[C@H](CC(=O)O)NC(=O)[C@H](CO)NC(=O)[C@@H](NC(=O)[C@](C)(Cc1ccccc1)NC(=O)[C@H](CO)NC(=O)CNC(=O)[C@H](CCC(=O)O)NC(=O)C(C)(C)NC(=O)[C@@H](N)Cc1c[nH]cn1)[C@@H](C)O)C(C)C)C(=O)N[C@@H](C)C(=O)N[C@@](C)(Cc1ccccc1)C(=O)N[C@H](C(=O)N[C@H](C(=O)N[C@@](C)(CCCCN)C(=O)NCC(=O)NCC(N)=O)C(C)C)C(C)C` [compound 138], for which the EC50 in assay [1] (setting [4]) is 19 pM; in assay [1] (setting [5]) it was 15 pM; in assay [1] (setting [6]), 17.2 pM; in assay [2] (Primary assay EC50 Gluc-R (n1), first determination (n1)), not below 26 nM; in assay [2] (read-out: Primary assay EC50 Gluc-R (n2), second determination (n2)), not below 26 nM; in assay [3] (Primary assay EC50 GIP-R (n1), first determination (n1)), not below 26 nM. In addition, the EC50 in assay [3] (read-out: Primary assay EC50 GIP-R (n2), second determination (n2)) was not below 26 nM.

As to `CC[C@H](C)[C@H](NC(=O)[C@H](CO)NC(=O)[C@](C)(Cc1ccccc1)NC(=O)[C@H](CC(=O)O)NC(=O)[C@H](CO)NC(=O)[C@@H](NC(=O)[C@](C)(Cc1ccccc1)NC(=O)[C@H](CO)NC(=O)CNC(=O)[C@H](CCC(=O)O)NC(=O)C(C)(C)NC(=O)[C@@H](N)Cc1ccc(O)cc1)[C@@H](C)CC)C(=O)N[C@@H](C)C(=O)N[C@@H](CCSC)C(=O)N[C@@H](CC(=O)O)C(=O)N[C@@H](CCCCN)C(=O)N[C@H](C(=O)N[C@@H](Cc1c[nH]cn1)C(=O)N[C@@H](CCC(N)=O)C(=O)N[C@@H](CCC(N)=O)C(=O)N[C@@H](CC(=O)O)C(=O)N[C@@](C)(Cc1ccccc1)C(=O)N[C@H](C(=O)N[C@@H](CC(N)=O)C(=O)N[C@@](C)(Cc1ccccc1)C(=O)N[C@@H](CC(C)C)C(=O)N[C@@H](CC(C)C)C(=O)N[C@@H](C)C(=O)N[C@@H](CCC(N)=O)C(=O)N[C@@H](CCCCN)C(N)=O)C(C)C)[C@@H](C)CC` [compound 15] (H-Y[Aib]EGS[αMeF]ISD[αMeF]SIAMDKIHQQD[αMeF]VN[αMeF]LLAQK-NH2; N-terminus assumed), the EC50 in assay [1] (setting [4]) was 120000 pM; in assay [1] (setting [5]), 120000 pM; in assay [1] (setting [6]), 119000 pM; in assay [2] (setting [7]) it was 120 nM; in assay [2] (setting [8]) it was 120 nM; in assay [3] (setting [9]) it was 0.16 nM. In addition, the EC50 in assay [3] (setting [10]) amounted to 0.079 nM.

Consider `CCCCCCCCCCCCCCCC(=O)N[C@@H](CCC(=O)NCCCC[C@H](NC(=O)CNC(=O)[C@](C)(CCCCN)NC(=O)[C@@H](NC(=O)[C@@H](NC(=O)[C@](C)(Cc1ccccc1)NC(=O)[C@H](C)NC(=O)[C@@H](NC(=O)[C@](C)(Cc1ccccc1)NC(=O)[C@H](CCC(=O)O)NC(=O)[C@](C)(CCCCN)NC(=O)[C@H](C)NC(=O)[C@H](C)NC(=O)[C@H](CCC(=O)O)NC(=O)CNC(=O)[C@H](CCC(=O)O)NC(=O)[C@H](CC(C)C)NC(=O)[C@](C)(Cc1ccccc1)NC(=O)[C@H](CO)NC(=O)[C@](C)(CO)NC(=O)[C@@H](NC(=O)[C@H](CC(=O)O)NC(=O)[C@H](CO)NC(=O)[C@@H](NC(=O)[C@](C)(Cc1ccccc1)NC(=O)[C@H](CO)NC(=O)CNC(=O)[C@H](CCC(=O)O)NC(=O)C(C)(C)NC(=O)[C@@H](N)Cc1c[nH]cn1)[C@@H](C)O)C(C)C)[C@@H](C)CC)C(C)C)C(C)C)C(N)=O)C(=O)O` [compound 70] (H-H[Aib]EGS[αMeF]TSDV[αMeS]S[αMeF]LEGEAA[αMeK]E[αMeF]IA[αMeF]VV[αMeK]GK([γGlu-Palmitoyl])-NH2; N-terminus assumed), for which the EC50 in assay [1] (setting [4]) is 74 pM; in assay [1] (setting [5]), 92 pM; in assay [1] (setting [6]), 83 pM; in assay [2] (setting [7]), not below 27 nM; in assay [2] (setting [8]) it was not below 27 nM; in assay [3] (setting [9]), not below 27 nM. The EC50 in assay [3] (setting [10]) is not below 27 nM.

On to `CSCC[C@H](NC(=O)[C@H](CC(C)C)NC(=O)[C@](C)(Cc1ccccc1)NC(=O)[C@H](CCC(N)=O)NC(=O)[C@@H](NC(=O)[C@](C)(Cc1ccccc1)NC(=O)[C@H](CC(=O)O)NC(=O)[C@H](CCC(N)=O)NC(=O)[C@H](C)NC(=O)[C@H](CCCNC(=N)N)NC(=O)[C@H](CCCNC(=N)N)NC(=O)[C@H](CO)NC(=O)[C@H](CC(=O)O)NC(=O)[C@H](CC(C)C)NC(=O)[C@](C)(Cc1ccccc1)NC(=O)[C@H](CCCCN)NC(=O)[C@H](CO)NC(=O)[C@](C)(Cc1ccccc1)NC(=O)[C@H](CC(=O)O)NC(=O)[C@H](CO)NC(=O)[C@@H](NC(=O)[C@](C)(Cc1ccccc1)NC(=O)[C@H](CO)NC(=O)CNC(=O)[C@H](CCC(N)=O)NC(=O)C(C)(C)NC(=O)[C@@H](N)Cc1c[nH]cn1)[C@@H](C)O)C(C)C)C(=O)N[C@@H](CC(N)=O)C(=O)N[C@H](C(N)=O)[C@@H](C)O` [compound 14] (H-H[Aib]QGS[αMeF]TSD[αMeF]SK[αMeF]LDSRRAQD[αMeF]VQ[αMeF]LMNT-NH2), for which the EC50 in assay [1] (setting [4]) turned out to be 3100 pM; in assay [1] (setting [5]) it was 1800 pM; in assay [1] (setting [6]) it was 2440 pM; in assay [2] (setting [7]), 3 nM; in assay [2] (setting [8]), 1.1 nM; in assay [3] (setting [9]) it was 15 nM. Further, the EC50 in assay [3] (setting [10]) stood at 19 nM.
